PubChem BioAssay AID1845206 (Molecular Pharmacology Branch, DTP, NCI, 2023)
Active and inactive are the calls of the source. The calls were made as follows: active = viability on the fitted dose curve at most 10% of control; inactive = the rest.

Tested on: NCI-H1618 multicellular tumor spheroid viability
Test: Anticancer human tumor NCI-H1618 cell line growth inhibition;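 also: spheroids exposed to agents for 7 days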
Settings: for IC50: curve of first compound; for viability, T/C: stronger effect = lower value
Outline: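 Complex spheroids of malignant cells with endothelial cells and mesenchymal stem cells; agents alone or combined, from near clinical Cmax (or 10 microM if unknown) down in half-log steps, 0.25% DMSO final.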

[1] = second compound 1 µM, first compound 0.00949 µM
[2] = second compound 1 µM, first compound 0.03 µM
[3] = second compound 1 µM, first compound 0.0949 µM
[4] = second compound 1 µM, first compound 0.3 µM
[5] = second compound 1 µM, first compound 0.949 µM
[6] = second compound 1 µM, first compound 3 µM
[7] = second compound 3.16 µM, first compound 0.00949 µM
[8] = second compound 3.16 µM, first compound 0.03 µM
[9] = second compound 3.16 µM, first compound 0.0949 µM
[10] = second compound 3.16 µM, first compound 0.3 µM
[11] = second compound 3.16 µM, first compound 0.949 µM
[12] = second compound 3.16 µM, first compound 3 µM
[13] = second compound 10 µM, first compound 0.00949 µM
[14] = second compound 10 µM, first compound 0.03 µM
[15] = second compound 10 µM, first compound 0.0949 µM
[16] = second compound 10 µM, first compound 0.3 µM
[17] = second compound 10 µM, first compound 0.949 µM
[18] = second compound 10 µM, first compound 3 µM
[19] = second compound 31.6 µM, first compound 0.00949 µM
[20] = second compound 31.6 µM, first compound 0.03 µM
[21] = second compound 31.6 µM, first compound 0.0949 µM
[22] = second compound 31.6 µM, first compound 0.3 µM
[23] = second compound 31.6 µM, first compound 0.949 µM
[24] = second compound 31.6 µM, first compound 3 µM
[25] = second compound 100 µM, first compound 0.00949 µM
[26] = second compound 100 µM, first compound 0.03 µM
[27] = second compound 100 µM, first compound 0.0949 µM
[28] = second compound 100 µM, first compound 0.3 µM
[29] = second compound 100 µM, first compound 0.949 µM
[30] = second compound 100 µM, first compound 3 µM

Compound | IC50 (second compound 1 µM) [nM] | IC50 (second compound 3.16 µM) [nM] | IC50 (second compound 10 µM) [nM] | IC50 (second compound 31.6 µM) [nM] | IC50 (second compound 100 µM) [nM] | viability, T/C [3] [%] | viability, T/C [4] [%] | viability, T/C [5] [%] | viability, T/C [6] [%] | viability, T/C [9] [%] | viability, T/C [10] [%] | viability, T/C [11] [%] | viability, T/C [12] [%] | viability, T/C [15] [%] | viability, T/C [16] [%] | viability, T/C [17] [%] | viability, T/C [18] [%] | viability, T/C [21] [%] | viability, T/C [22] [%] | viability, T/C [23] [%] | also measured
CNCc1ccc(-c2cc(-c3nc(-c4ccc(S(=O)(=O)C(C)C)cc4)cnc3N)on2)cc1 + Cn1nnc2c(C(N)=O)ncn2c1=O | 57.2 | < 9.49 | < 9.49 | < 9.49 | < 9.49 | 20 | 9.42 | 1.93 | 0.47 | 21.4 | 2.21 | 1.04 | 0.58 | 3.76 | 1.59 | 0.8 | 16.5 | 19.2 | 1.44 | 1.18 | viability, T/C [1]: 87.1%; viability, T/C [2]: 89.3%; viability, T/C [7]: 11.2%; viability, T/C [8]: 23.2%; viability, T/C [13]: 8.64%; viability, T/C [14]: 4.75%; viability, T/C [19]: 10.5%; viability, T/C [20]: 14.6%; viability, T/C [24]: 18.5%; outcome [25]: inactive; viability, T/C [26]: 24.1%; viability, T/C [27]: 13.9%; viability, T/C [28]: 1.69%; viability, T/C [29]: 19.3%; viability, T/C [30]: 0.46%
Cn1ncnc1[C@H]1c2n[nH]c(=O)c3cc(F)cc(c23)N[C@@H]1c1ccc(F)cc1 + Cn1nnc2c(C(N)=O)ncn2c1=O | 9.72 | < 9.49 | < 9.49 | < 9.49 | < 9.49 | 4.42 | 1.85 | 2.02 | 2.04 | 21.4 | 1.75 | 1.84 | 19.8 | 2.45 | 2.8 | 18.3 | 1.95 | 3.12 | 1.9 | 1.85 | viability, T/C [1]: 50.5%; viability, T/C [2]: 26.7%; viability, T/C [7]: 3.96%; viability, T/C [8]: 22.4%; viability, T/C [13]: 19.2%; viability, T/C [14]: 1.53%; viability, T/C [19]: 1.95%; viability, T/C [20]: 1.94%; viability, T/C [24]: 2.06%; viability, T/C [25]: 1.84%; viability, T/C [26]: 2.1%; viability, T/C [27]: 2.47%; viability, T/C [28]: 2.51%; viability, T/C [29]: 18.2%; viability, T/C [30]: 2.29%
O=C(c1cc(Cc2n[nH]c(=O)c3ccccc23)ccc1F)N1CCN(C(=O)C2CC2)CC1 + Cn1nnc2c(C(N)=O)ncn2c1=O | 179 | < 94.9 | < 94.9 | < 94.9 | < 94.9 | 77.8 | 22.5 | 23.6 | 20.8 | 19.4 | 25.9 | 23.3 | 3.5 | 24.5 | 23.7 | 21.8 | 20 | 24.9 | 26.2 | 21.8 | viability, T/C (second compound 1 µM, first compound 9.49 µM): 2.93%; viability, T/C (second compound 1 µM, first compound 30 µM): 5.71%; viability, T/C (second compound 3.16 µM, first compound 9.49 µM): 24.2%; viability, T/C (second compound 3.16 µM, first compound 30 µM): 8.1%; viability, T/C (second compound 10 µM, first compound 9.49 µM): 20.2%; viability, T/C (second compound 10 µM, first compound 30 µM): 5.57%; viability, T/C [24]: 20.8%; viability, T/C (second compound 31.6 µM, first compound 9.49 µM): 20.5%; viability, T/C (second compound 31.6 µM, first compound 30 µM): 3.19%; viability, T/C [27]: 21.8%; viability, T/C [28]: 23.7%; viability, T/C [29]: 23%; viability, T/C [30]: 21.4%; viability, T/C (second compound 100 µM, first compound 9.49 µM): 2.71%; viability, T/C (second compound 100 µM, first compound 30 µM): 2.88%
